Reference: patent publication EP1925205A1, “Plant propagation material treatment nematicides” (priority 2006, dated 2008)
“And” between values parts separate entries of the source, which are not always exact repeats. Identical values can stand only once. Like-named read-outs stand apart in the source and are kept apart here.

Legend:
Format in all cases: in vivo, Meloidogyne incognita
[1] = tested on: M. incognita; conditions: for Efficacy (%): DS formulation, inoculated 14 days after sowing, galling 28 days after inoculation; for average rating (gall rating, score 0.1-7): tomato, untreated control 4.1
[2] = tested on: M. incognita; conditions: for Efficacy (%): DS formulation, inoculated 14 days after sowing, galling 28 days after inoculation; for average rating (gall rating, score 0.1-7): tomato, untreated control 4.6
[3] = tested on: Meloidogyne spp.; assay: General statement of effectiveness against nematodes by plant propagation material treatment
[4] = tested on: M. incognita; assay: Example 4: nematode control by tomato seed treatment, root galling (index adapted from Zeck); conditions: for Efficacy (%) / germination of treated seeds: tomato seeds; for Efficacy (%): Methiocarb FS500, Thiodicarb DS, inoculated 14 days after sowing, galling 28 days after inoculation; for average rating (gall rating, score 0.1-7): tomato, untreated control 4.3; for germination of treated seeds: FS500 formulation
[5] = tested on: M. incognita; assay: Example 6: nematode control by cotton seed treatment, root galling (index adapted from Zeck); conditions: for Efficacy (%): cotton seeds, DS formulation, inoculated 14 days after sowing, galling 28 days after inoculation; for average rating (gall rating, score 0.1-7): cotton, untreated control 2.0
[6] = tested on: M. incognita; assay: Example 5: nematode control by tomato seed treatment, root galling (index adapted from Zeck); conditions: for Efficacy (%): tomato seeds, DS formulation, inoculated 14 days after sowing, galling 28 days after inoculation
[7] = tested on: M. incognita; assay: Example 1: nematode control by tomato seed treatment, root galling (index adapted from Zeck), two exposure timings; conditions: for Efficacy (%) at the two-week exposure / Efficacy (%) at the four-week exposure: tomato seeds, DS formulation, galling 28 days after inoculation; for Efficacy (%) at the two-week exposure: inoculated 14 days after sowing, 6000 eggs; for Efficacy (%) at the four-week exposure: inoculated 28 days after sowing, 9000 eggs; for average rating (gall rating, score 0.1-7): tomato
[8] = tomato seeds, 0.01 mg a.i./seed
[9] = tomato seeds, 0.03 mg a.i./seed
[10] = 1 mg a.i./seed, inoculated at 14 days after sowing, untreated control 3.5
[11] = 1 mg a.i./seed, inoculated at 28 days after sowing, untreated control 2.9

CCOP(=S)(OCC)Oc1nc(Cl)c(Cl)cc1Cl [Chlorpyrifos]
Efficacy (%) [1, 8]: 0%
Efficacy (%) [1, 9]: 0%
Efficacy (%) ([1]; tomato seeds, 0.1 mg a.i./seed): 0%
Efficacy (%) ([1]; tomato seeds, 0.3 mg a.i./seed): 0%
Efficacy (%) ([1]; tomato seeds, 1 mg a.i./seed): 0%
average rating (gall rating, score 0.1-7) ([1]; 1 mg /seed): 4.3

CCOP(=S)(OCC)Oc1nc(Cl)n(C(C)C)n1 [Isazofos]
Efficacy (%) [2, 9]: 4.0%
Efficacy (%) ([2]; tomato seeds, 0.1 mg a.i./seed): 2.2%
Efficacy (%) ([2]; tomato seeds, 0.3 mg a.i./seed): 34.8%
Efficacy (%) ([2]; tomato seeds, 1 mg a.i./seed): 87.0%
average rating (gall rating, score 0.1-7) ([2]; 1 mg /seed): 0.6
effective against Meloidogyne spp., for example, Meloidogyne incognita [3]: effective

CS/C(C)=N\OC(=O)N(C)SN(C)C(=O)O/N=C(\C)SC [Thiodicarb]
Efficacy (%) ([4]; 0.03 mg a.i./seed): 0%
Efficacy (%) ([4]; 0.1 mg a.i./seed): 0%
Efficacy (%) ([4]; 0.3 mg a.i./seed): 0%
Efficacy (%) ([4]; 1 mg a.i./seed): 1.9%
average rating (gall rating, score 0.1-7) ([4]; 1 mg a.i./seed): 4.3

CCN(CC)C(=O)C(Cl)=C(C)OP(=O)(OC)OC [Phosphamidon]
Efficacy (%) [1, 8]: 0%
Efficacy (%) [1, 9]: 2.0%
Efficacy (%) ([1]; tomato seeds, 0.1 mg a.i./seed): 0%
Efficacy (%) ([1]; tomato seeds, 0.3 mg a.i./seed): 0%
Efficacy (%) ([1]; tomato seeds, 1 mg a.i./seed): 0%
average rating (gall rating, score 0.1-7) ([1]; 1 mg /seed): 4.1

CCOP(=O)(SC(C)CC)SC(C)CC (stereo not drawn) [Cadusafos]
Efficacy (%) ([5]; 0.01 mg a.i./seed): 0%
Efficacy (%) ([5]; 0.03 mg a.i./seed): 0%
Efficacy (%) ([5]; 0.1 mg a.i./seed): 8.3%
Efficacy (%) ([5]; 0.3 mg a.i./seed): 77.5%
Efficacy (%) ([5]; 1 mg a.i./seed): 86.7%
average rating (gall rating, score 0.1-7) ([5]; 0.3 mg /seed): 0.5
average rating (gall rating, score 0.1-7) ([5]; 1 mg a.i./seed): 0.3
effective against Meloidogyne spp., for example, Meloidogyne incognita [3]: effective
germination of treated seeds ([1]; tomato seeds, 1 mg a.i./seed): did not germinate
Efficacy (%) [1, 8]: 0%
Efficacy (%) [1, 9]: 0%
Efficacy (%) ([1]; tomato seeds, 0.1 mg a.i./seed): 2.0%
Efficacy (%) ([1]; tomato seeds, 0.3 mg a.i./seed): 14.3%
average rating (gall rating, score 0.1-7) ([1]; 0.3 mg /seed): 3.5

CCOP(=S)(OCC)Oc1ccc(Cl)cc1Cl [Dichlofenthion]
Efficacy (%) [1, 8]: 0%
Efficacy (%) [1, 9]: 0%
Efficacy (%) ([1]; tomato seeds, 0.1 mg a.i./seed): 0%
Efficacy (%) ([1]; tomato seeds, 0.3 mg a.i./seed): 0%
Efficacy (%) ([1]; tomato seeds, 1 mg a.i./seed): 0%
average rating (gall rating, score 0.1-7) ([1]; 1 mg /seed): 4.7

CNC(=O)CSP(=S)(OC)OC [Dimethoate]
Efficacy (%) [1, 8]: 0%
Efficacy (%) [1, 9]: 2.0%
Efficacy (%) ([1]; tomato seeds, 0.1 mg a.i./seed): 2.0%
Efficacy (%) ([1]; tomato seeds, 0.3 mg a.i./seed): 0%
Efficacy (%) ([1]; tomato seeds, 1 mg a.i./seed): 0%
average rating (gall rating, score 0.1-7) ([1]; 1 mg /seed): 4.3

CCOP(=S)(OCC)Oc1cc(C)nc(C(C)C)n1 [Diazinon]
Efficacy (%) [1, 8]: 0%
Efficacy (%) [1, 9]: 0%
Efficacy (%) ([1]; tomato seeds, 0.1 mg a.i./seed): 0%
Efficacy (%) ([1]; tomato seeds, 0.3 mg a.i./seed): 0%
Efficacy (%) ([1]; tomato seeds, 1 mg a.i./seed): 0%
average rating (gall rating, score 0.1-7) ([1]; 1 mg /seed): 4.2

CCCCNC(=O)n1c(NC(=O)OC)nc2ccccc21 [Benomyl]
Efficacy (%) ([6]; 0.1 mg a.i./seed): 0%
Efficacy (%) ([6]; 0.3 mg a.i./seed): 2.0%
Efficacy (%) ([6]; 1 mg a.i./seed): 0%
average rating (gall rating, score 0.1-7) ([6]; tomato, 1 mg a.i./seed, untreated control 4.2): The untreated control plants have an average rating of 4.2. Benomyl at 1 mg a.i. /seed is also rated at 4.2.

CNC(=O)Oc1cc(C)c(SC)c(C)c1 [Methiocarb]
Efficacy (%) ([4]; 0.01 mg a.i./seed): 3.8%
Efficacy (%) ([4]; 0.03 mg a.i./seed): 3.8%
Efficacy (%) ([4]; 0.1 mg a.i./seed): 1.9%
germination of treated seeds ([4]; 0.3 mg /seed): only 1 seed out of 6 germinated
Efficacy (%) ([4]; 0.3 mg a.i./seed): 0%
germination of treated seeds ([4]; 1 mg a.i./seed): did not germinate
average rating (gall rating, score 0.1-7) ([4]; 0.1 mg /seed): 4.3
average rating (gall rating, score 0.1-7) ([4]; 0.3 mg /seed, only one germinated plant): 4.5

CNC(=O)O/N=C/C(C)(C)SC [Aldicarb]
Efficacy (%) [2, 9]: 5.8%
Efficacy (%) ([2]; tomato seeds, 0.1 mg a.i./seed): 5.8%
Efficacy (%) ([2]; tomato seeds, 0.3 mg a.i./seed): 11.2%
Efficacy (%) ([2]; tomato seeds, 1 mg a.i./seed): 16.7%
average rating (gall rating, score 0.1-7) ([2]; 1 mg /seed): 3.8
effective against Meloidogyne spp., for example, Meloidogyne incognita [3]: effective

CCOP(=O)(SC(C)CC)N1CCSC1=O (stereo not drawn) [Fosthiazate]
Efficacy (%) at the two-week exposure ([7]; 0.03 mg a.i./seed): 0%
Efficacy (%) at the four-week exposure ([7]; 0.03 mg a.i./seed): 0%
Efficacy (%) at the two-week exposure ([7]; 0.1 mg a.i./seed): 40%
Efficacy (%) at the four-week exposure ([7]; 0.1 mg a.i./seed): 0%
Efficacy (%) at the two-week exposure ([7]; 0.3 mg a.i./seed): 28.6%
Efficacy (%) at the four-week exposure ([7]; 0.3 mg a.i./seed): 10.9%
Efficacy (%) at the two-week exposure ([7]; 1 mg a.i./seed): 59% and 59.4%
Efficacy (%) at the four-week exposure ([7]; 1 mg a.i./seed): 40%
average rating (gall rating, score 0.1-7) [7, 10]: 1.4
average rating (gall rating, score 0.1-7) [7, 11]: 1.8
effective against Meloidogyne spp., for example, Meloidogyne incognita [3]: effective

CCCSP(=O)(OCC)SCCC [Ethoprofos, Ethoprophos]
germination of treated seeds ([2]; tomato seeds, 1 mg a.i./seed): did not germinate
Efficacy (%) [2, 9]: 4.0%
Efficacy (%) ([2]; tomato seeds, 0.1 mg a.i./seed): 2.2%
Efficacy (%) ([2]; tomato seeds, 0.3 mg a.i./seed): 2.2%
average rating (gall rating, score 0.1-7) ([2]; 0.3 mg /seed): 4.5

CCOP(=S)(OCC)SCSC(C)(C)C [Terbufos]
Efficacy (%) [1, 8]: 0%
Efficacy (%) [1, 9]: 0%
Efficacy (%) ([1]; tomato seeds, 0.1 mg a.i./seed): 0%
Efficacy (%) ([1]; tomato seeds, 0.3 mg a.i./seed): 0%
Efficacy (%) ([1]; tomato seeds, 1 mg a.i./seed): 0%
average rating (gall rating, score 0.1-7) ([1]; 1 mg /seed): 4.1

CNC(=O)O/N=C(\SC)C(=O)N(C)C [Oxamyl]
Efficacy (%) at the two-week exposure ([7]; 0.03 mg a.i./seed): 7.1%
Efficacy (%) at the four-week exposure ([7]; 0.03 mg a.i./seed): 0%
Efficacy (%) at the two-week exposure ([7]; 0.1 mg a.i./seed): 0%
Efficacy (%) at the four-week exposure ([7]; 0.1 mg a.i./seed): 2.9%
Efficacy (%) at the two-week exposure ([7]; 0.3 mg a.i./seed): 0%
Efficacy (%) at the four-week exposure ([7]; 0.3 mg a.i./seed): 0%
Efficacy (%) at the two-week exposure ([7]; 1 mg a.i./seed): 0%
Efficacy (%) at the four-week exposure ([7]; 1 mg a.i./seed): 4.5%
average rating (gall rating, score 0.1-7) [7, 10]: 3.5
average rating (gall rating, score 0.1-7) [7, 11]: 2.8

CCOP(=S)(OCC)Oc1ccc([S+](C)[O-])cc1 (stereo not drawn) [Fensulfothion]
effective against Meloidogyne spp., for example, Meloidogyne incognita [3]: effective
Efficacy (%) [1, 8]: 0%
Efficacy (%) [1, 9]: 2.0%
Efficacy (%) ([1]; tomato seeds, 0.1 mg a.i./seed): 0%
Efficacy (%) ([1]; tomato seeds, 0.3 mg a.i./seed): 0%
Efficacy (%) ([1]; tomato seeds, 1 mg a.i./seed): 20.4%
average rating (gall rating, score 0.1-7) ([1]; 1 mg /seed): 3.3

CCOP(=S)(OCC)SCSCC [Phorate]
Efficacy (%) [2, 9]: 22.1%
Efficacy (%) ([2]; tomato seeds, 0.1 mg a.i./seed): 2.2%
Efficacy (%) ([2]; tomato seeds, 0.3 mg a.i./seed): 2.2%
Efficacy (%) ([2]; tomato seeds, 1 mg a.i./seed): 5.8%
average rating (gall rating, score 0.1-7) ([2]; 1 mg /seed): 4.3
